Source: patent publication US20240269170A1, “Treatment of Inflammatory Conditions or Diseases” (Queen Mary University of London, priority 2021, published 2024)

Tested on: K/B×N serum induced arthritis in mice
Assay: K/B×N serum transfer inflammatory arthritis, MCTR3 given immediately after disease onset
Type: in vivo, mouse
Protocol: FIG. 7: MCTR3 limits joint inflammation. Mice were administered K/B×N serum on days 0 and 2 and then treated with MCTR3 (100 ng/mouse) or Vehicle (PBS+0.1% EtOH) on days 3 and 5. Disease course was evaluated by assessing (A) clinical scores. (B-C) On day 7 joints were collected and disease severity was evaluated using (B) H&E Staining and (C) glycosaminoglycan content was assessed using Safranin-O staining, arrows denote Safranin-O staining in cartilage. Results for A are presented as mean±SEM. Statistical differences for A were evaluated using Two-Way ANOVA. n=4 mice per group. IFP=intrapatellar fat, M=meniscus, TB=Tibia, PF=Pannus formation, Red arrows denote leukocyte infiltration. (D-E) Lipid mediator profiles were determined using LC-MS/MS-based lipid mediator profiling and evaluated using PLS-DA. (D) scores plot with highlighted regions denoting the clusters representing cells from each group and (E) VIP scores for top 15 mediators. Each dot in the score plot represents a separate mouse.
For this purpose, we employed a serum transfer model of inflammatory arthritis, which relies on the activation of the innate immune system replicating the effector phase of rheumatoid arthritis (Korganow et al., 1999, Immunity 10, 451-461). […] We next evaluated whether MCTR3 administration also regulated the joint lipid mediator profile. Using partial least square discriminant analysis, which produces a regression model built using concentrations of lipid mediators differently expressed between the two groups, we found a shift in joint lipid mediator concentrations in mice treated with MCTR3. This shift was linked with a downregulation of pro-inflammatory and nociceptive eicosanoids including PGE2 and PGF2a and an upregulation of pro-resolving and anti-nociceptive mediators such as MaR1 and PDX (FIG. 7D,E).
All samples were extracted using solid-phase extraction columns as in (Gomez et al., 2020, Nat Commun 11, 5420). In brief, samples were placed in ice-cold methanol containing deuterated internal standards (d8-5S-HETE, d4-LTB4, d5-LXA4, d4-PGE2, d5-RvD2, d5-MaR1, d5-MaR2, d5-RvD3, d4-RvE1, d5-17R-RvD1, d5-LTC4, d5-LTD4 and d5-LTE4) representing each chromatographic region of identified LM. Following protein precipitation (−20° C. for a minimum of 45 min), samples were centrifuged and supernatants extracted using an ExtraHera System (Biotage) using solid-phase extraction with Isolute C18 500 mg columns (Biotage). Methyl formate and methanol fractions were collected, brought to dryness and resuspended in phase (methanol/water, 1:1, vol/vol) for injection on a Shimadzu LC-20AD HPLC and a Shimadzu SIL-20AC autoinjector, paired with a QTrap 5500 or QTrap 6500^+ (Sciex). In the analysis of mediators eluted in the methyl formate fraction, an Agilent Poroshell 120 EC-C18 column (100 mm×4.6 mm×2.7 μm) was kept at 50° C. and mediators eluted using a mobile phase consisting of methanol/water/acetic acid of 20:80:0.01 (vol/vol/vol) that was ramped to 50:50:0.01 (vol/vol/vol) over 0.5 min and then to 80:20:0.01 (vol/vol/vol) from 2 min to 11 min, maintained till 14.5 min and then rapidly ramped to 98:2:0.01 (vol/vol/vol) for the next 0.1 min. This was subsequently maintained at 98:2:0.01 (vol/vol/vol) for 5.4 min, and the flow rate was maintained at 0.5 ml/min. QTrap 5500 was operated in negative ionization mode using a multiple reaction monitoring method. […]

[1] = 100 ng/mouse on days 3 and 5, LC-MS/MS, PLS-DA
[2] = 100 ng/mouse on days 3 and 5, joints day 7

## CC/C=C\C/C=C\C[C@H](O)[C@@H](/C=C/C=C/C=C\C/C=C\CCC(=O)O)SC[C@H](N)C(=O)O [MCTR3, 13R-cysteinyl, 14S-hydroxy-4Z, 7Z, 9E, 11E, 13R, 14S, 16Z, 19Z-docosahexaenoic acid]
[1]
  joint pro-inflammatory and nociceptive eicosanoids including PGE2 and PGF2a: downregulation
  joint pro-resolving and anti-nociceptive mediators such as MaR1 and PDX: upregulation
[2]
  leukocyte infiltration (H&E): decrease
  safranin staining (glycosaminoglycan content in the cartilage): increased
100 ng/mouse on days 3 and 5, vs vehicle
  clinical scores: significant reduction
